Results on four compounds are retold here after US7344704B2, “Use of perfluoroalkyl-containing metal complexes as contrast media in MR-imaging for visualization of intravascular thrombi” (Schering AG, priority 2002, dated 2008).

What all share (format): physicochemical
The nature of data set [1]: Proton relaxivity R^1 in plasma (Minispec P 20). As to conditions: in plasma (bovine) at 40° C., field strength 0.47 Tesla. On the procedure: As a third criterion, the proton-relaxivity in plasma (R^1) at 40° C. and a field strength of 0.47 tesla are used. The relaxivity, which is indicated in [l/mmol·s], is the quantitative measurement for the shortening of relaxation time T^1 of the protons. For the purpose according to the invention, the relaxivity must be as high as possible and >10 l/mmol·s, preferably >13 l/mmol·s, especially preferably >15 l/mmol·s.
Relaxivity R^1 [l/mmol·s] of the MR-contrast media according to the invention was determined with the Minispec P 20 device of the Bruker Company. The measurements were taken at 40° C. and a field strength of 0.47 tesla. Eight measuring points were recorded by each T1-sequence: 180°-TI-90°, inversion recovery. As a medium, bovine plasma of the Kraeber Company was used. The contrast medium concentrations [mmol/l] in the batches were between 0.30 and 1.16.
The measurements were carried out in plasma at 40° C. and a field strength of 0.47 Tesla.

A short description of data set [2]: Hydrodynamic micelle diameter 2 Rh by photon correlation spectroscopy. The text has this:
The amphiphilic compounds according to the invention are associated in solution and are present as aggregates. The size (2 Rh) of such aggregates (e.g., micelles, rods, wafers, etc.) can be determined with the aid of […] (PCS).
As a second criterion, the hydrodynamic micelle diameter 2 Rh, which must be >1 nm, is therefore used. In particular, those perfluoroalkyl-containing metal complexes according to the invention whose 2 RH≧3 nm, quite especially preferably >4 nm, are suitable.
(§1) Both the determination of the CMC and the photon correlation spectroscopy are described in H.-D. Dörfler, “Grenzflächen-und Kolloidchemie [Interface and Colloid Chemistry],” Weinheim, New York, Basel, Cambridge, Tokyo, VSH 1994.

Data set [3] is described as follows: Critical micelle formation concentration (CMC) by tensiometry. On the procedure:
In aqueous systems, these amphiphilic molecules show the properties that are characteristic of standard surfactants (such as, e.g., sodium dodecylsulfate, SDS). They thus reduce the surface tension of water. By tensiometry, the so-called CMC (critical micelle formation concentration in mol/l) can be determined. In this respect, the surface tension is determined based on the concentration of the substance to be measured. The CMC can be calculated from the plot of the surface tension function (c) that is obtained. The critical micelle formation concentration of the compounds according to the invention must be <10^−3 mol/l, preferably <10^−4 mol/l.
as §1

Take `COCCOCCOCCOCCOCC(=O)NCCCC[C@H](NC(=O)COCCC(F)(F)C(F)(F)C(F)(F)C(F)(F)C(F)(F)C(F)(F)C(F)(F)C(F)(F)F)C(=O)NCC(O)CN1CCN(CC(=O)[O-])CCN(CC(=O)[O-])CCN(CC(=O)[O-])CC1.[Gd+3]` (stereo partly drawn) [MK 28, 6-N-3,6,9,12,15-Pentaoxahexadecanoyl-2-N-2H,2H,4H,4H,5H,5H-3-oxaperfluorotridecanoyl-L-lysine-N-{1,4,7-tris[carboxylatomethyl]-1,4,7,10-tetraazacyclododecane-10-(2-hydroxy-3-yl), gadoliniumcomplex}-amide]: the “R^1 (Relaxivity)” value in data set [1] was 27.9 l: mmol · s. The “2 Rh (Hydrodynamic Micelle Diameter)” value in data set [2] is 4.7 nm. In addition, the “CMC (Critical Micelle Formation Concentration)” value (“CMC” below) in data set [3] worked out at 8.1e-06 mol/L.

Take `O=C([O-])CN1CCN(CC(=O)[O-])CCN(CC(O)CNC(=O)CNC(=O)CNC(=O)CNC(=O)COCCC(F)(F)C(F)(F)C(F)(F)C(F)(F)C(F)(F)C(F)(F)C(F)(F)C(F)(F)F)CCN(CC(=O)[O-])CC1.[Gd+3]` (stereo not drawn) [MK 30, 1,4,7-Tris(carboxylatomethyl)-1,4,7,10-tetraazacyclododecane-10-{2-hydroxy-3-N-[triglycidyl-N-(2H,2H,4H,4H,5H,5H-3-oxa-perfluorotridecanoyl)]amino}-propyl, gadolinium complex]: the “R^1 (Relaxivity)” value in data set [1] is reported as 27.9 l: mmol · s. The “2 Rh (Hydrodynamic Micelle Diameter)” value in data set [2] is recorded as 7.9 nm. In addition, the “CMC” value in data set [3] was 7e-06 mol/L.

For the compound “Gadolinium complex of 10-{1-carboxy-2-carbonyl-[piperazin-1-yl-4-(perfluorooctylsulfonyl)]}-ethyl-1,4,7-tris(carboxymethyl)-1,4,7,10-tetraazacyclododecane, Sodium salt [MK 29]”, in data set [1], the “R^1 (Relaxivity)” value was 17.7 l: mmol · s. Besides, in data set [2], the “2 Rh (Hydrodynamic Micelle Diameter)” value turned out to be 4.8 nm. In addition, the “CMC” value in data set [3] amounted to 7.6e-05 mol/L.

With “gadolinium complex of 1,4,7-tris{1,4,7-tris(N-(carboxylatomethyl)-10-[N-1-methyl-3,6-diaza-2,5,8-trioxooctane-1,8-diyl)]-1,4,7,10-tetraazacyclododecane, Gd complex}-10-[N-2H,2H,4H,4H,5H,5H-3-oxa-perfluorotridecanoyl]-1,4,7,10-tetraazacyclododecane [MK 12]”, in data set [1], the “R^1 (Relaxivity)” value was 19.5 l: mmol · s. Besides, the “2 Rh (Hydrodynamic Micelle Diameter)” value in data set [2] is 2.2 nm. For the same compound, the “CMC” value in data set [3] was found to be 0.00089 mol/L.
